Results: publication PMC7822874, “Chemoprotective antimalarials identified through quantitative high-throughput screening of Plasmodium blood and liver stage parasites” (Scientific Reports, 2021)

Experiment: in vitro
Conditions: human, hepg2-a16-cd81egfp cells
Further: reference of the scale not given here.

Compound	viability at 3 µM [%]	viability at 3 µM (% viability) [%]
COc1cccc(OCCn2cc(C(=O)c3ccco3)c3ccccc32)c1 [MLS000050800]	106	
Cc1ccc(CNCc2cc3c(C(C)(C)C)nn(-c4ccccc4)c3[nH]c2=O)cc1 [MLS000067257]		106
Cc1ccc(-c2nn(-c3ccccc3)c3[nH]c(=O)c(CNCc4ccccc4)cc23)cc1 [MLS000067457]		95.4
Cc1cc(C)n(-c2nc(NC(C)C)nc(NC(C)C)n2)n1 [MLS000068521]		105
CCCc1c(CC)c(=N)c2ccccc2n1C [MLS000080101]		83.6
O=C(Nc1cccnc1)c1cn(-c2ccccc2)nc1-c1cccs1 [MLS000081870]		100
C=C(C)COc1ccc(-c2n[nH]cc2-c2ccc(OC)c(OC)c2)c(O)c1 [MLS000084580]		42.4
COc1ccc(OC)c(-n2c(-c3cccc(O)c3)n[nH]c2=S)c1 [MLS000089016]		93.1
COc1ccc2cc3cc(C(=O)NCC4CCCO4)oc3nc2c1 (stereo not shown) [MLS000091914]		106
CC(C)N1CC=C(c2c[nH]c3ccccc23)CC1 [MLS000093714]		93.1
Cc1ccc(-c2cc3c(nn2)-c2ccccc2C3=O)cc1 [MLS000104226]		76.2
N#Cc1ccc(NC(=O)Nc2ccc(Cl)cc2)cc1 [MLS000104525]		77.8
Oc1c(Cl)cc(Cl)cc1CN1CCN(Cc2ccccc2)CC1 [MLS000106505]	92	
Oc1ccc(Br)cc1CN1CCN(c2ccccc2)CC1 [MLS000106609]	99.8	
CCN(CC)CC(O)COc1ccccc1C(=O)CCc1ccccc1 (stereo not shown) [MLS000107538]		104
N#Cc1c2c(c(NCc3ccco3)n3c1nc1ccccc13)CCC2 [MLS000109113]		97.7
Cc1cc(C)n(-c2nc(NC(C)(C)C)nc(NC(C)(C)C)n2)n1 [MLS000109787]		106
CCCCOc1ccc(NC2=NC(N)=NC3(CCCCC3)N2)cc1 [MLS000109806]		88.4
Cc1cc(N2CCC(C)CC2)nc(-n2nc(C)cc2C)n1 [MLS000109839]		98.6
Cc1cc(Nc2ccc(C(C)C)cc2)n2ncnc2n1 [MLS000116597]		96.1
Cc1cc(Nc2ccc(Br)c(C)c2)n2nc(C)nc2n1 [MLS000116638]		87.3
N#Cc1cc(C#N)c(N2CCN(c3cccc(Cl)n3)CC2)nc1N [MLS000325470]		99.6

Compound	viability at 3 µM [%]	viability at 3 µM (% viability) [%]
CCOc1ccc(-n2c(SCC(N)=O)nc3sc4c(c3c2=O)CCN(C)C4)cc1 [MLS000332254]		95.7
OC(CNC1CCCc2ccccc21)COc1c(Cl)cccc1Cl (stereo not shown) [MLS000334339]		100
c1ccc2sc(Sc3ncnc4sccc34)nc2c1 [MLS000334432]		96.9
Cc1ccc(Sc2ccc(NC(=O)CCl)cc2)cc1C [MLS000334846]		93.9
Clc1ccc2c(N/N=C/c3cccc(Br)c3)ccnc2c1 [MLS000336198]		87.2
CCOc1ccccc1NC(C)C(=O)Nc1cc(C(F)(F)F)ccc1N1CCOCC1 (stereo not shown) [MLS000336343]		99.6
CCN(CC)c1ccc(NC(=O)COc2ccccc2C#N)cc1S(=O)(=O)Nc1ccccc1OC [MLS000339599]		97.1
O=C(NC1=C(Nc2ccc(F)cc2)C(=O)c2ccccc2C1=O)c1ccc(Cl)cc1 [MLS000375026]		97
O=C(NC1=C(Nc2ccc(Cl)cc2)C(=O)c2ccccc2C1=O)c1ccccc1 [MLS000375030]		97.1
CC1CCN(c2ccc(C(=O)NCc3ccco3)cc2[N+](=O)[O-])CC1 [MLS000389854]		91.2
COc1ccccc1CNCC(O)Cn1c2ccccc2c2ccccc21 (stereo not shown) [MLS000391556]		92.6
CCOc1ccc2c(c1)OC(c1ccc(C)cc1)(C(F)(F)F)NC2=O (stereo not shown) [MLS000392832]		63.5
CCOC(=O)c1sc2nc3c(SCCC#N)cc(C(=O)c4cc(F)ccc4O)cn3c(=O)c2c1C [MLS000393119]		91.3
Cc1nc2ccc(NC(=O)c3cc(S(=O)(=O)N(C)c4ccccc4)ccc3Cl)cc2s1 [MLS000393823]		59.7
O=C(c1cc(C(=O)NCCc2ccccc2)c(=O)n(CCc2ccccc2)c1)c1cc(Cl)ccc1O [MLS000402354]		100
CCOc1ccc(Nc2cc(=O)oc3ccccc23)cc1 [MLS000519261]		103
Cc1ccc(C(=O)N/N=C/c2ccc([N+](=O)[O-])s2)cc1 [MLS000519463]		95.4
OC(CNCC1CCCO1)Cn1c2ccc(Cl)cc2c2cc(Cl)ccc21 (stereo not shown) [MLS000525403]		90.7
CCOc1ccccc1NC(=O)Cn1c(-c2ccc(Cl)cc2)noc1=O [MLS000529487]		86.9
COc1ccc2[nH]c(C)c(CCN(Cc3cccs3)C(S)=Nc3ccccc3)c2c1 [MLS000529828]		86.8
CCCCCCCc1c(C)[nH]c(N2CCOCC2)nc1=O [MLS000531187]		90.5
Clc1ccc(NNc2ccnc3cc(Cl)ccc23)cc1 [MLS000537447]		90.3

Compound	viability at 3 µM [%]	viability at 3 µM (% viability) [%]
O=C(CCl)Nc1cccc(-c2cnc3ccccc3n2)c1 [MLS000541295]		88.6
CN(C)c1nc(-c2ccccn2)nnc1-c1ccccc1 [MLS000541553]		86.2
Cc1ccccc1C1C(C#N)=C2N=C(N)c3c(sc4c3CCCCC4)N2C2=C1C(=O)CCC2 (stereo not shown) [MLS000543544]		92.6
Cc1cc(C)c(C)c(S(=O)(=O)NCc2ccc(C(=O)N3CCCCC3)cc2)c1C [MLS000547926]		90.2
CC1CCN(S(=O)(=O)c2ccc3c(c2)C(=NO)c2cc(S(=O)(=O)N4CCC(C)CC4)ccc2-3)CC1 [MLS000551434]		6.86
O=c1c2ccccc2nc(N/N=C/c2c(O)ccc3ccccc23)n1O [MLS000551780]		34.1
CCc1c(C)c(C#N)c2nc3ccccc3n2c1NCC1CCCO1 (stereo not shown) [MLS000556827]		99.5
O=C(NCc1ccccc1)c1onc(CSc2nc3ccccc3[nH]2)c1C(=O)NCc1ccccc1 [MLS000561090]		105
Cc1noc(C)c1CSc1nc2sc3c(c2c(=O)n1C)CCCC3 [MLS000564913]		89.9
O=C(/C(=C/c1ccc(Cl)cc1)c1nc2ccccc2[nH]1)c1cccs1 [MLS000565128]		79.2
CCN(CC)C1=NC(=[N+](CC)CC)c2ccccc21.[O-][Cl+3]([O-])([O-])O [MLS000565348]		83.4
Cc1ccnc2nc(C(=O)Nc3cc(Cl)ccc3N3CCOCC3)nn12 [MLS000567033]		98.5
CC(C)(C)N1C(=O)c2ccc(C(=O)Nc3ccc(-c4nc5ccccc5[nH]4)cc3)cc2C1=O [MLS000567491]		104
CC(=O)N(C)C1=C(N2CCOCC2)C(=O)c2ccccc2C1=O [MLS000570886]		96.1
O=C(NC(c1ccccc1)c1cc(Cl)c2cccnc2c1O)c1cccnc1 (stereo not shown) [MLS000573359]		69.7
O=[N+]([O-])c1ccc(N2CCN(/C(S)=N/C3CCCCC3)CC2)cc1 [MLS000574247]		99.2
Cc1ccc(Nc2cc(C)nc(NCc3ccccc3)n2)cc1 [MLS000574704]		80.6
CCOc1ccc(C(=O)Nc2ccc(-c3nc4ccccc4[nH]3)cc2)cc1[N+](=O)[O-] [MLS000577721]		101
COc1cccc(C2C3=C(N=c4sc(=Cc5ccccc5O)c(=O)n42)c2ccccc2CC3)c1OC (stereo not shown) [MLS000580951]		92.9
C=CCNC(=S)N1CCN(c2ccc([N+](=O)[O-])cc2)CC1 [MLS000581348]		99.6
OCC[n+]1ccc(/C=C/c2c[nH]c3ccccc23)cc1 [MLS000585200]		90.7
Cc1ccc(NC2=C/C(=N\S(=O)(=O)c3cccs3)c3ccccc3C2=O)cc1C [MLS000585841]		81.7

Compound	viability at 3 µM [%]	viability at 3 µM (% viability) [%]
Cc1cccc(Nc2cc(C)c3c(O)cccc3n2)c1C [MLS000586980]		88.1
COc1ccc(/C=N/Nc2cc(C)nc(-n3nc(C)cc3C)n2)c(OC)c1 [MLS000589396]		91
Clc1ccc2c(N/N=C/c3ccc(Br)cc3)ccnc2c1 [MLS000589586]		104
Cc1cc(Nc2ccc(Cl)cc2)nc(NCc2ccccc2)n1 [MLS000591025]		87.8
Clc1ncnc2scc(-c3ccc(Br)cc3)c12 [MLS000591637]		99.5
Cc1cc(Nc2cccc(Cl)c2)nc(NCc2ccccc2)n1 [MLS000591844]		80.9
CCOC(=O)c1nc2cc3n(c(CC(C)C)c-2c1C)CC(C)=C3C [MLS000594428]		105
CN1CCN(c2ccc(NC(=O)c3ccc(-c4cccc([N+](=O)[O-])c4)o3)cc2)CC1 [MLS000663772]		107
Cc1ccc(Nc2cc(C)c3ccc(O)cc3n2)cc1C [MLS000674791]		92.2
Oc1ccccc1Nc1nc(NCc2ccccc2)c2ccccc2n1 [MLS000693415]		90.9
N=c1ccn(CC(=O)c2ccc(-c3ccccc3)cc2)cc1 [MLS000698051]		53.4
CN1C2CCC1/C(=C/c1ccccn1)C(=O)/C2=C\c1ccccn1 [MLS000702810]		83
O=C(CCc1ccccc1)NC(c1cccs1)c1cc(Cl)c2cccnc2c1O (stereo not shown) [MLS000703748]		54
CCOC(=O)c1c(CN(C)C)n(-c2ccc(C)cc2)c2cc(Br)c(O)cc12 [MLS000705141]		97.3
CC1(C)Cc2ccccc2C2=NNC(=O)C2=N1 [MLS000709658]		94.5
CCOC(=O)c1c(NC(=O)C[n+]2ccc(N(C)C)cc2)sc(C)c1C [MLS000710762]		65.1
Cc1cc(C)[n+](C)n1CC(O)Cn1c2ccccc2c2ccccc21 (stereo not shown) [MLS000711524]		104
C/C(=N\Nc1nc(-c2ccccc2O)nc2ccccc12)c1ccccc1 [MLS000714167]		93.6
CCCC(=O)NC(c1ccccc1OC)c1ccc2cccnc2c1O (stereo not shown) [MLS000715345]		55.4
CCCC(=O)NC(c1ccc(OC)cc1)c1ccc2cccnc2c1O (stereo not shown) [MLS000715379]		59.7
CCN(CC)CCN1C(=O)c2ccccc2NC1c1ccc(Br)cc1 (stereo not shown) [MLS000723891]		87.8
CCOC(=O)c1nnn(-c2nonc2N)c1-c1ccc(Br)cc1 [MLS000727795]		96.5
